pIC50: −log10 of the molar value. Bounds are passed on as bounds.

This passage reports IC50 results from patent US8691865B2 (AbbVie Inc., priority 2008, dated 2014).

For the first assay, the target named is human Cav2.2 (Homo sapiens, UniProt Q00975). Description: Assessment of calcium channel activity using FLIPR (Ca2+ influx in IMR32 cells). Type of assay: cell-based.
human Cav2.2, sequence (Q00975 whole entry): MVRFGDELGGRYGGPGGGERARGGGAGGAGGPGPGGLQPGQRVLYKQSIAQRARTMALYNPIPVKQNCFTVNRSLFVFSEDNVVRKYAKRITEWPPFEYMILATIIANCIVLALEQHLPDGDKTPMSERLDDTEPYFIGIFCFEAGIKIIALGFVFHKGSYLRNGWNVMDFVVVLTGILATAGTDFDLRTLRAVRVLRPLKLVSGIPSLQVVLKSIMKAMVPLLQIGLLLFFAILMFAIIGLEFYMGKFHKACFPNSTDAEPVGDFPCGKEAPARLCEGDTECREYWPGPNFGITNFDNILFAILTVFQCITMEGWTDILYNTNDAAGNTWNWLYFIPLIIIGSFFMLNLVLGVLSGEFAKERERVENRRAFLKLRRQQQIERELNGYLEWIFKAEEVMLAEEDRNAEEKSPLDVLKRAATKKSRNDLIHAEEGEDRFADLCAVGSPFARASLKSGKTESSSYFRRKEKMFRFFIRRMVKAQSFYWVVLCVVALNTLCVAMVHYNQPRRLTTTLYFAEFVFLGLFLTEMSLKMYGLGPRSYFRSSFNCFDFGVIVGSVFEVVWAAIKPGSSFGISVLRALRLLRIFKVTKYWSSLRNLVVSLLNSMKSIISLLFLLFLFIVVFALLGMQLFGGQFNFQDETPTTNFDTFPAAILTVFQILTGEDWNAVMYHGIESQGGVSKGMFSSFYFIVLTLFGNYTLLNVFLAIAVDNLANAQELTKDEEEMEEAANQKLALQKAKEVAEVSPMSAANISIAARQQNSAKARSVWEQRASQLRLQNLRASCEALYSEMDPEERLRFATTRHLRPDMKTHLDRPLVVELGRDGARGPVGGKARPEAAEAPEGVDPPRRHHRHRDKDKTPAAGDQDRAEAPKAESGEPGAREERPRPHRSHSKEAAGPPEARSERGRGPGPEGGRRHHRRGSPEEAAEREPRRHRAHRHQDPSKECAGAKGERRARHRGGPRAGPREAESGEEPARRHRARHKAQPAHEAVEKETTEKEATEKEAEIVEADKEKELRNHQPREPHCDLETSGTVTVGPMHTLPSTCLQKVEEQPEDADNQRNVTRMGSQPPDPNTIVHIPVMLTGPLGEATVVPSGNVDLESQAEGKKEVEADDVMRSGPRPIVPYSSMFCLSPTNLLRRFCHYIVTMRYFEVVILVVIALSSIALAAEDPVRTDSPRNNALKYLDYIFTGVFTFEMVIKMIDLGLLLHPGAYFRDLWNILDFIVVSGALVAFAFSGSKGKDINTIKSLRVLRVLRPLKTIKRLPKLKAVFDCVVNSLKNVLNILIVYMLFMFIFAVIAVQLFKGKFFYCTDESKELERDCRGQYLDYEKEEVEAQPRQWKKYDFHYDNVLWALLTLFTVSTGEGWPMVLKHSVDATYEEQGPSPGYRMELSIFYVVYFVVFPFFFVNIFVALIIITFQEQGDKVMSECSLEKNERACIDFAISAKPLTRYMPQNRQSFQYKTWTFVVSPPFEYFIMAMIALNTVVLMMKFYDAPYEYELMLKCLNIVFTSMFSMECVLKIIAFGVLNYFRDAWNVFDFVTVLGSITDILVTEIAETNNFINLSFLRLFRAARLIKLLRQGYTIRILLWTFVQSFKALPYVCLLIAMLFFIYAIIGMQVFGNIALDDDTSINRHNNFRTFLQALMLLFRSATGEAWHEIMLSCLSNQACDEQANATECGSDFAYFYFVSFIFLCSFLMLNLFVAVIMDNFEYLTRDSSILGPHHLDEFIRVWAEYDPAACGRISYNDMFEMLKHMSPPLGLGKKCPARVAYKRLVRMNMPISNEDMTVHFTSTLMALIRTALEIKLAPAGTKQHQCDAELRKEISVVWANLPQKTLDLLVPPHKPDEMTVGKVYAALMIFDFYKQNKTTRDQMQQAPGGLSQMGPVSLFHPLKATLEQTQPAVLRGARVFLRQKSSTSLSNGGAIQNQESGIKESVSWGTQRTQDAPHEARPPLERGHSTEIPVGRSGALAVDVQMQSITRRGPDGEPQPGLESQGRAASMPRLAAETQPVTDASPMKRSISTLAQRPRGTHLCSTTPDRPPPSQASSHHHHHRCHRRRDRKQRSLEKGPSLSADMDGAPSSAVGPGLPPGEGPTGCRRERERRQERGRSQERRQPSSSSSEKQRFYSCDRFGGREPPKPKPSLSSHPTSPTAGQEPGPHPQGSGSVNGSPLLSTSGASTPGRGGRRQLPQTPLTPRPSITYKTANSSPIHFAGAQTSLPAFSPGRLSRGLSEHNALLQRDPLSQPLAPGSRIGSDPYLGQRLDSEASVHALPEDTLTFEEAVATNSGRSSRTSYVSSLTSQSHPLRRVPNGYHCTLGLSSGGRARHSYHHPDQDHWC
human Cav2.2, sequence (P54289 25-956 partner limits assumed): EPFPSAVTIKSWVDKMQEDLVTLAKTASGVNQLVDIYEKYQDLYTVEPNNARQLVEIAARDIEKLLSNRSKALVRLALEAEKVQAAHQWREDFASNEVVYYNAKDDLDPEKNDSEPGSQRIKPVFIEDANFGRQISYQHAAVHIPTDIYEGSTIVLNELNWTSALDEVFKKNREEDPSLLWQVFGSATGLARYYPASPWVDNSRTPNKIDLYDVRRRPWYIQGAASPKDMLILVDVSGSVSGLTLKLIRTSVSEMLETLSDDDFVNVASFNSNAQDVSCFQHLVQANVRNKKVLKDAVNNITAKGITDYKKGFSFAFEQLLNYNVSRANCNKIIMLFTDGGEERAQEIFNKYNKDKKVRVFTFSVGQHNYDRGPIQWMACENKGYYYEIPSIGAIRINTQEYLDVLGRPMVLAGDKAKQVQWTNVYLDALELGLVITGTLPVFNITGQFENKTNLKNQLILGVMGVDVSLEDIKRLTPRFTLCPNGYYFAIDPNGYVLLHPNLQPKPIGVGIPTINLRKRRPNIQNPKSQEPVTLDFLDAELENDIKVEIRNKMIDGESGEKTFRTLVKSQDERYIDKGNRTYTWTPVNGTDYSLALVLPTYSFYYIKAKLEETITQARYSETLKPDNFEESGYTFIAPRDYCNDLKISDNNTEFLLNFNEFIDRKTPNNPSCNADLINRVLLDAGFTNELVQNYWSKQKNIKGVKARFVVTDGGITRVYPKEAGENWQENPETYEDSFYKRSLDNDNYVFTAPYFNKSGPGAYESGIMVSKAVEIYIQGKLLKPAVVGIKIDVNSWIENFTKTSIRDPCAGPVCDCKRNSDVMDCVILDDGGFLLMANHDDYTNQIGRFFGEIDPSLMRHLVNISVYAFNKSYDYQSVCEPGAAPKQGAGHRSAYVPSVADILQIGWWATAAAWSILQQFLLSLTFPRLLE
human Cav2.2, sequence (P54289 957-1103 partner limits assumed): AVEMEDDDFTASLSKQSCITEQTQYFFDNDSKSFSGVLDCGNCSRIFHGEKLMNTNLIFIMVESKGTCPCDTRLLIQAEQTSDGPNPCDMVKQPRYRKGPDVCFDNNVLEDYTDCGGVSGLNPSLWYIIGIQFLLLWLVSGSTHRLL
human Cav2.2, sequence (P54284 whole entry partner): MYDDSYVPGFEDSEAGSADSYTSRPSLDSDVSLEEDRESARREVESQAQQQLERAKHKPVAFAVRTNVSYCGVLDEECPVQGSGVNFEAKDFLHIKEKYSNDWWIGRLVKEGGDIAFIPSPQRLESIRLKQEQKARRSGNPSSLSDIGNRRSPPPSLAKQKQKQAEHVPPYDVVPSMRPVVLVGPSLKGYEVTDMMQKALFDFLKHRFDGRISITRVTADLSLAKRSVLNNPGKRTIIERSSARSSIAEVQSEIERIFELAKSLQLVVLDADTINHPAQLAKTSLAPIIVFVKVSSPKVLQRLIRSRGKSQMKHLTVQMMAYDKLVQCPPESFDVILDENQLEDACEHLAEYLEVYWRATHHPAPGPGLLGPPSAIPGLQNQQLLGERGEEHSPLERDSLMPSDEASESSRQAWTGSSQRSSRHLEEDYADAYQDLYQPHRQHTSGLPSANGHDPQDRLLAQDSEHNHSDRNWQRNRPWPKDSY
Details: not given
The method in brief: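 IC50 values derive from nonlinear sigmoidal fitting of percent inhibition, relative to inhibitor-free activity, of Ca2+ influx read by FLIPR. Cells were IMR32 human neuroblastoma, plated at 1−1.2×10^5 per well and grown 48 h at 37 °C.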
Consider `NC1(C(=O)N[C@H]2CC[C@@H]3CN(c4cccc(C(F)(F)F)n4)C[C@@H]32)CCCC1` [Example 594, 1-amino-N-{(3aR,4S,6aS)-2-[6-(trifluoromethyl)pyridin-2-yl]octahydrocyclopenta[c]pyrrol-4-yl}cyclopentanecarboxamide], for which the pIC50 (usually the IC50 on a negative log10 scale, so that one unit is a factor of ten) was 5.84. Same read-out and setting: with `O=C(N[C@H]1CC[C@@H]2CN(c3cccc(C(F)(F)F)n3)C[C@@H]21)c1cc2occc2[nH]1` [Example 574, N-{(3aR,4S,6aS)-2-[6-(trifluoromethyl)pyridin-2-yl]octahydrocyclopenta[c]pyrrol-4-yl}-4H-furo[3,2-b]pyrrole-5-carboxamide] the figure was 5.86; with `N[C@@H](CC1CC1)C(=O)N[C@H]1CC[C@@H]2CN(c3ccc(OC(F)(F)F)cc3)C[C@@H]21` [Example 776, 3-cyclopropyl-N-{(3aR,4S,6aS)-2-[4-(trifluoromethoxy)phenyl]octahydrocyclopenta[c]pyrrol-4-yl}-L-alaninamide], 5.60. In the case of `CC(C)N[C@@H](CC(C)(C)C)C(=O)N[C@H]1CC[C@@H]2CN(C(=O)[C@H](Cc3ccccc3)NC(C)C)C[C@@H]21` [Example 489, N^2-isopropyl-N^1-[(3aR,4S,6aS)-2-(N-isopropyl-L-phenylalanyl)octahydrocyclopenta[c]pyrrol-4-yl]-4-methyl-L-leucinamide], the pIC50 is 4.80.

On to `CCCCc1nc(CN[C@H]2CC[C@@H]3CN(c4cccc(C(F)(F)F)n4)C[C@@H]32)c[nH]1` [Example 674, (3aR,4S,6aS)-N-[(2-butyl-1H-imidazol-4-yl)methyl]-2-[6-(trifluoromethyl)pyridin-2-yl]octahydrocyclopenta[c]pyrrol-4-amine], for which the pIC50 was 6.28. In the case of `CCC[C@H](NC(C)C)C(=O)N[C@H]1CC[C@@H]2CN(Cc3ccccc3)C[C@@H]21` [Example 494, N^1-[(3aR,4S,6aS)-2-benzyloctahydrocyclopenta[c]pyrrol-4-yl]-N^2-isopropyl-L-norvalinamide], the pIC50 is less than 4.52. Still for that read-out and setting: with `O=C(N[C@H]1CC[C@@H]2CN(c3ccc(C(F)(F)F)cc3)C[C@@H]21)[C@@H]1C[C@@H](F)CN1` [Example 781, (4R)-4-fluoro-N-{(3aR,4S,6aS)-2-[4-(trifluoromethyl)phenyl]octahydrocyclopenta[c]pyrrol-4-yl}-L-prolinamide] the figure was 5.08; with `O=C(N[C@H]1CC[C@@H]2CN(c3ccc(C(F)(F)F)cn3)C[C@@H]21)[C@@H]1Cc2ccccc2N1` [Example 604, (2S)-N-{(3aR,4S,6aS)-2-[5-(trifluoromethyl)pyridin-2-yl]octahydrocyclopenta[c]pyrrol-4-yl}indoline-2-carboxamide], 5.56; with `O=C(N[C@H]1CC[C@H]2CN(Cc3ccccc3)C[C@H]21)C(c1ccccc1)C1CCCC1` (relative stereo) [Example 7, N-[(3aS*,4S*,6aR*)-2-benzyloctahydrocyclopenta[c]pyrrol-4-yl]-2-cyclopentyl-2-phenylacetamide], 6.04. Regarding `CN[C@@H](CC(C)C)C(=O)N[C@H]1CC[C@@H]2CN(c3ccc(OC(F)(F)F)cc3F)C[C@@H]21` [Example 774, N-{(3aR,4S,6aS)-2-[2-fluoro-4-(trifluoromethoxy)phenyl]octahydrocyclopenta[c]pyrrol-4-yl}-N^2-methyl-L-leucinamide], the pIC50 was 5.94. The same measure, in the same setting: the figure for `CCC[C@H](NC(=O)OC(C)C)C(=O)N[C@H]1CC[C@@H]2CN(S(=O)(=O)c3ccc(C(F)(F)F)cc3)C[C@@H]21` [Example 279, isopropyl(S)-1-oxo-1-((3aR,4S,6aS)-2-(4-(trifluoromethyl)phenylsulfonyl)octahydrocyclopenta[c]pyrrol-4-ylamino)pentan-2-ylcarbamate] is less than 4.78; for `O=C(N[C@H]1CC[C@@H]2CN(c3cccc(C(F)(F)F)n3)C[C@@H]21)c1ccccc1O` [Example 562, 2-hydroxy-N-{(3aR,4S,6aS)-2-[6-(trifluoromethyl)pyridin-2-yl]octahydrocyclopenta[c]pyrrol-4-yl}benzamide] it is 5.77; for `CN[C@H](C(=O)N[C@H]1CC[C@@H]2CN(c3ccc(C(F)(F)F)cc3)C[C@@H]21)[C@H](C)O` [Example 750, N^2-methyl-N-{(3aR,4S,6aS)-2-[4-(trifluoromethyl)phenyl]octahydrocyclopenta[c]pyrrol-4-yl}-L-allothreoninamide] it is less than 5.52. Regarding `Fc1ccc2c(CN[C@H]3CC[C@@H]4CN(c5cccc(C(F)(F)F)n5)C[C@@H]43)c[nH]c2c1` [Example 686, (3aR,4S,6aS)-N-[(6-fluoro-1H-indol-3-yl)methyl]-2-[6-(trifluoromethyl)pyridin-2-yl]octahydrocyclopenta[c]pyrrol-4-amine], the pIC50 is 6.06. On the same count and under the same terms, the figure for `Fc1ccc2[nH]c(CN[C@H]3CC[C@@H]4CN(c5ccc(C(F)(F)F)cn5)C[C@@H]43)cc2c1` [Example 614, (3aR,4S,6aS)-N-[(5-fluoro-1H-indol-2-yl)methyl]-2-[5-(trifluoromethyl)pyridin-2-yl]octahydrocyclopenta[c]pyrrol-4-amine] is 5.48; for `O=C(N[C@H]1CC[C@@H]2CN(c3cccc(C(F)(F)F)n3)C[C@@H]21)c1cc(C2CC2)n[nH]1` [Example 583, 3-cyclopropyl-N-{(3aR,4S,6aS)-2-[6-(trifluoromethyl)pyridin-2-yl]octahydrocyclopenta[c]pyrrol-4-yl}-1H-pyrazole-5-carboxamide] it is 5.95. In the case of `Cc1cccc(CN2C[C@@H]3CC[C@H](NC(=O)C(C4CCCCC4)C4CCCCC4)[C@@H]3C2)c1` [Example 61, 2,2-dicyclohexyl-N-[(3aS,4S,6aR)-2-(3-methylbenzyl)octahydrocyclopenta[c]pyrrol-4-yl]acetamide], the pIC50 was 6.07. Take `CC(C)N[C@H]1CC[C@@H]2CN(c3cccc(C(F)(F)F)n3)C[C@@H]21` [Example 609, (3aR,4S,6aS)-N-isopropyl-2-[6-(trifluoromethyl)pyridin-2-yl]octahydrocyclopenta[c]pyrrol-4-amine]: the pIC50 was 5.84. `CN[C@@H](CC(C)C)C(=O)N[C@H]1CC[C@@H]2CN(c3ccccc3Cl)C[C@@H]21` [Example 634, N-[(3aR,4S,6aS)-2-(2-chlorophenyl)octahydrocyclopenta[c]pyrrol-4-yl]-N^2-methyl-L-leucinamide]: the pIC50 was 5.62. The same measure, in the same setting: the figure for `CC(C)COC(=O)N[C@@H](CC(C)C)C(=O)N[C@@H]1CC[C@H]2CN(Cc3cccc(C(F)(F)F)c3)C[C@H]21` [Example 178, isobutyl (S)-4-methyl-1-oxo-1-((3aS,4R,6aR)-2-(3-(trifluoromethyl)benzyl)octahydrocyclopenta[c]pyrrol-4-ylamino)pentan-2-ylcarbamate] is 6.00. `CCC[C@H](NCC(C)(C)C)C(=O)N[C@H]1CC[C@@H]2CN(S(=O)(=O)c3ccc(C(F)(F)F)cc3)C[C@@H]21` [Example 257, N^2-neopentyl-N^1-((3aR,4S,6aS)-2-{[4-(trifluoromethyl)phenyl]sulfonyl}octahydrocyclopenta[c]pyrrol-4-yl)-L-norvalinamide]: the pIC50 is 6.15.

Still in this assay, the particulars now being: read-out: IC50 (μM) or percent inhibition (* indicates 3 minute incubation, otherwise 60 minute); IC50; 60 minute pre-incubation with compound; IMR32 cells, 80 mM KCl depolarization.
With `CC(C)C(C(=O)N[C@H]1CC[C@@H]2CN(Cc3cccc(C(F)(F)F)c3)C[C@@H]21)c1ccccc1` (stereo partly drawn) [Example 88, 3-methyl-2-phenyl-N-{(3aR,4S,6aS)-2-[3-(trifluoromethyl)benzyl]octahydrocyclopenta[c]pyrrol-4-yl}butanamide], the IC50 (as a rule, the concentration at which inhibition is half-maximal) came out at 1.18 µM. Regarding `CC(C)(C)OC(=O)N1CCCC[C@H]1C(=O)N[C@@H]1CC[C@H]2CN(Cc3ccccc3)C[C@H]21` [Example 231, tert-butyl(2S)-2-({[(3aS,4R,6aR)-2-benzyloctahydrocyclopenta[c]pyrrol-4-yl]amino}carbonyl)piperidine-1-carboxylate], the IC50 was 6.13 µM.

As for `O=C(CCCCC(c1ccc(F)cc1)c1ccc(F)cc1)N[C@H]1CC[C@H]2CN(Cc3cccc(C(F)(F)F)c3)C[C@H]21` (relative stereo) [Example 130, 6,6-bis(4-fluorophenyl)-N-{(3aS*,4S*,6aR*)-2-[3-(trifluoromethyl)benzyl]octahydrocyclopenta[c]pyrrol-4-yl}hexanamide], the IC50 was 0.79 µM. `CC(C)(C)[C@H](C(=O)N[C@@H]1CC[C@H]2CN(Cc3ccccc3)C[C@H]21)c1ccccc1` [Example 31, (2S)-N-[(3aS,4R,6aR)-2-benzyloctahydrocyclopenta[c]pyrrol-4-yl]-3,3-dimethyl-2-phenylbutanamide]: the IC50 amounted to 1.65 µM. As to `CC(C)C[C@@H](C(=O)N[C@H]1CC[C@H]2CN(Cc3ccccc3)C[C@H]21)N(C)C(=O)OC(C)(C)C` [Example 239, tert-butyl(S)-1-((3aS,4S,6aR)-2-benzyloctahydrocyclopenta[c]pyrrol-4-ylamino)-4-methyl-1-oxopentan-2-yl(methyl)carbamate], the IC50 stood at 3.32 µM.

For `CN[C@@H](CC(C)C)C(=O)N[C@H]1CC[C@H]2CN(Cc3cccc(C(F)(F)F)c3)C[C@H]21` [Example 164, N^2-methyl-N^1-{(3aS,4S,6aR)-2-[3-(trifluoromethyl)benzyl]octahydrocyclopenta[c]pyrrol-4-yl}-L-leucinamide], the IC50 was 1.64 µM.

Regarding `CC(C)C[C@H](C(=O)N[C@H]1CC[C@H]2CN(Cc3cccc(C(F)(F)F)c3)C[C@H]21)N(C)C(=O)OC(C)(C)C` (relative stereo) [Example 139, N^2-(tert-butyloxycarbonyl)-N^2-methyl-N^1-{(3aS*,4S*,6aR*)-2-[3-(trifluoromethyl)benzyl]octahydrocyclopenta[c]pyrrol-4-yl}-D-leucinamide], the IC50 worked out at 1.01 µM. As for `CC(C)C(C(=O)N[C@H]1CC[C@@H]2CN(Cc3ccccc3)C[C@@H]21)C(C)C` [Example 229, N-[(3aR,4S,6aS)-2-benzyloctahydrocyclopenta[c]pyrrol-4-yl]-2-isopropyl-3-methylbutanamide], the IC50 was determined as 13.4 µM.
